Values quoted from earlier work as cited in patent US20140256765A1, “TRANSMUCOSAL DRUG DELIVERY SYSTEM” (priority 2013, published 2014).

Assays:
[1] = at a pH of 6.8
[2] = in vivo

## CN1CCCC1c1cccnc1 (centres unmarked) [nicotine]
[1]
  nicotine in the free base form: about 10%
[2]
  time to peak of plasma nicotine levels: about 10 minutes
